Type in all cases: cell-based
In assay [1] the test system is Wnt pathway (Sp5-Luc reporter, SW480 cells). Description: Sp5-Luc reporter gene screening assay for Wnt activity in SW480 colon carcinoma cells. The note with it: Homo sapiens. In a few lines:
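IC50 values come from variable-slope four-parameter fits of luciferase signal normalized to DMSO wells. Stable Sp5-Luc reporter SW480 colon carcinoma cells were exposed to compounds in a 3-fold dilution series (source plates from 10 mM stock) for forty-two hours at 37 °C.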
In general terms: A reporter such as luciferase makes a cellular process visible.

In assay [2] the test system is primary human mesenchymal stem cells (hMSCs). Description: Chondrogenesis induction screen in primary human mesenchymal stem cells (nodules, Rhodamine B/Nile Red). The note with it: 144 h, 6 days; for EC (100% TGF-beta3 activity): concentration required to induce chondrogenesis equivalent to TGF-β3 (10 ng/mL), read-out: Conc (nM) of 100% TGF-β3 activity; for Emax: relative to TGF-β3 (10 ng/mL) positive control, read-out: Max. Activity as % TGF-β3 activity. The protocol: The above synthesized compounds were screened using primary human mesenchymal stem cells (hMSCs) to determine their ability to induce chondrogenesis (process by which cartilage is developed).
Primary human mesenchymal stem cells (hMSCs) were purchased from Lonza (Walkersville, Md.) and expanded in Mesenchymal Stem Cell Growth Media (Lonza). Cells between passage 3 and 6 were used for the experiments.
Each compound was dissolved in DMSO as a 10 mM stock and used to prepare compound source plates. Serial dilution (1:3, 6-point dose-response curves from 2700 nM to 10 nM) and compound transfer was performed using the ECHO 550 (Labcyte, Sunnyvale, Calif.) into 96-well clear bottom assay plates (Greiner Bio-One) with appropriate DMSO backfill for a final DMSO concentration of 0.03%. hMSCs were plated at 20,000 cells/well in 250 μL/well Incomplete Chondrogenic Induction Medium (Lonza; DMEM, dexamethasone, ascorbate, insulin-transferrin-selenium [ITS supplement], gentamycin-amphotericin [GA-1000], sodium pyruvate, proline and L-glutamine). TGF-β3 (10 ng/mL) was used as a positive control for differentiation while negative control wells were treated with 75 nL DMSO for normalization and calculating EC50 values. Cells were incubated at 37° C. and 5% CO2 for 6 days. To image chondrogenic nodules, the cells were fixed using 4% formaldehyde (Electron Microscopy Sciences), and stained with 2 μg/mL Rhodamine B (Sigma-Aldrich) and 20 μM Nile Red (Sigma-Aldrich) [Johnson K., et. al, A Stem Cell-Based Approach to Cartilage Repair, Science, (2012), 336(6082), 717-721]. The nodules imaged (4 images per well at 4× magnification) by excitation at 531 nm and emission at 625 nm and quantified using the CellInsight CX5 (Thermo Scientific). Number of nodules in each well was normalized to the average of 3 DMSO treated wells on the same plate using Excel (Microsoft Inc.). The normalized averages (fold change over DMSO) of 3 replicate wells for each compound concentration were calculated. Due to solubility limitations of some of the compounds, curve fitting was incomplete leading to inaccurate EC50 determinations.
Using TGF-03 as a positive control, the concentration of test compounds required to induce equivalent levels of chondrogenesis is reported. In addition, the maximum activity of each compound and the respective dose that each compound reached maximum chondrogenesis activity is reported.

Assay [3] deals with LL29 cells. Description: Inhibition of the fibrotic process (αSMA staining) in TGF-β1 treated primary human fibroblasts from IPF patients. The conditions noted are these: Fibroblast, 96 h, TGF-β1 20 ng/mL, 4 days, dose-response 10 μM to 1.87 nM, read-out: Inhibition of fibrosis EC50. Summed up: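 LL29 IPF lung fibroblasts in 1% FBS were stimulated with TGF-β1 (20 ng/mL) and treated 4 days at 37 °C with compound (11 points, 10 μM–1.87 nM, 0.1% DMSO). The % αSMA-positive cells, imaged after excluding SYTOX-positive dead cells, was normalized to TGF-β1/DMSO wells. EC50 came from nonlinear regression over triplicates.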

A word on the IC50: it is the concentration that gives 50% inhibition. A lower IC50 goes with greater potency in that assay. For orientation: EC50 means the concentration giving half of the maximal effect.

As to `CCCC(=O)Nc1cncc(-c2cc3c(-c4nc5c(-c6cccc(F)c6)nccc5[nH]4)n[nH]c3cn2)c1` [Compound 17, N-(5-(3-(4-(3-Fluorophenyl)-1H-imidazo[4,5-c]pyridin-2-yl)-1H-pyrazolo[3,4-c]pyridin-5-yl)pyridin-3-yl)butyramide], in assay [1], half-maximal inhibition (IC50) was put at 10.7 nM. Besides, in assay [2], the EC (100% TGF-beta3 activity) amounted to 67.8 nM and the Emax came out at 10%. The 50% effective concentration (EC50) in assay [3] is not above 9 nM.
Take `Nc1cncc(-c2cc3c(-c4nc5c(-c6ccccc6F)nccc5[nH]4)n[nH]c3cn2)c1` [Compound 55, 5-(3-(4-(2-Fluorophenyl)-1H-imidazo[4,5-c]pyridin-2-yl)-1H-pyrazolo[3,4-c]pyridin-5-yl)pyridin-3-amine]: the 50% inhibitory concentration (IC50) in assay [1] came to 16.6 nM. In assay [2], the EC (100% TGF-beta3 activity) worked out at 145 nM. Further, the EC50 in assay [3] was not above 9 nM.
`c1cncc(-c2cc3c(-c4nc5c(-c6cccnc6)nccc5[nH]4)n[nH]c3cn2)c1` [Compound 82, 5-(Pyridin-3-yl)-3-(4-(pyridin-3-yl)-1H-imidazo[4,5-c]pyridin-2-yl)-1H-pyrazolo[3,4-c]pyridine] returned a half-inhibitory concentration (IC50) in assay [1] of 1.7 nM. The EC (100% TGF-beta3 activity) in assay [2] is 44.5 nM.
In turn, `FC1(F)CCN(Cc2cncc(-c3cc4c(-c5nc6c(N7CCCCC7)nccc6[nH]5)n[nH]c4cn3)c2)C1` [Compound 181, 5-(5-((3,3-Difluoropyrrolidin-1-yl)methyl)pyridin-3-yl)-3-(4-(piperidin-1-yl)-1H-imidazo[4,5-c]pyridin-2-yl)-1H-pyrazolo[3,4-c]pyridine] had a half-maximal inhibitory concentration (IC50) in assay [1] of 61.6 nM. Also, the EC (100% TGF-beta3 activity) in assay [2] turned out to be 68.1 nM. For the same compound, in assay [3], the EC50 was 140 nM.
For the compound `Cc1cn(-c2nccc3[nH]c(-c4n[nH]c5cnc(-c6cncc(NC(=O)C(C)(C)C)c6)cc45)nc23)cn1` [Compound 190, N-(5-(3-(4-(4-Methyl-1H-imidazol-1-yl)-1H-imidazo[4,5-c]pyridin-2-yl)-1H-pyrazolo[3,4-c]pyridin-5-yl)pyridin-3-yl)pivalamide], the IC50 in assay [1] came out at 32.8 nM. In assay [2], the EC (100% TGF-beta3 activity) turned out to be 71.8 nM and the Emax worked out at 100%.
`CCNCc1cncc(-c2cc3c(-c4nc5c(-c6ccsc6)nccc5[nH]4)n[nH]c3cn2)c1` [Compound 266, N-((5-(3-(4-(Thiophen-3-yl)-1H-imidazo[4,5-c]pyridin-2-yl)-1H-pyrazolo[3,4-c]pyridin-5-yl)pyridin-3-yl)methyl)ethanamine] displayed an IC50 in assay [1] of 11.3 nM. Moreover, in assay [2], the EC (100% TGF-beta3 activity) stood at 67.7 nM and the Emax worked out at 30%. In addition, the EC50 in assay [3] was not above 9 nM.
In the same order, the values of `CC(C)Nc1cncc(-c2cc3c(-c4nc5c(-c6ccoc6)nccc5[nH]4)n[nH]c3cn2)c1` [Compound 298, 5-(3-(4-(Furan-3-yl)-1H-imidazo[4,5-c]pyridin-2-yl)-1H-pyrazolo[3,4-c]pyridin-5-yl)-N-isopropylpyridin-3-amine] are 15 nM, 219 nM, 300% and 65 nM.
Compound `O=C(Nc1cncc(-c2cc3c(-c4nc5c(-c6cccs6)nccc5[nH]4)n[nH]c3cn2)c1)C1CC1` [Compound 331, N-(5-(3-(4-(Thiophen-2-yl)-1H-imidazo[4,5-c]pyridin-2-yl)-1H-pyrazolo[3,4-c]pyridin-5-yl)pyridin-3-yl)cyclopropanecarboxamide] came in with a 50% inhibitory concentration (IC50) in assay [1] of 16.4 nM. The EC (100% TGF-beta3 activity) in assay [2] amounted to 68.4 nM. Besides, in assay [3], the 50% effective concentration (EC50) was not above 9 nM.
The matching figures for `CC(C)(C)C(=O)Nc1cncc(-c2cc3c(-c4nc5c(-c6ccc(F)s6)nccc5[nH]4)n[nH]c3cn2)c1` [Compound 346, N-(5-(3-(4-(5-Fluorothiophen-2-yl)-1H-imidazo[4,5-c]pyridin-2-yl)-1H-pyrazolo[3,4-c]pyridin-5-yl)pyridin-3-yl)pivalamide]: 12.6 nM, 40.9 nM and not above 9 nM.
On to `Cc1ccc(-c2nccc3[nH]c(-c4n[nH]c5cnc(-c6cncc(N)c6)cc45)nc23)s1` [Compound 367, 5-(3-(4-(5-Methylthiophen-2-yl)-1H-imidazo[4,5-c]pyridin-2-yl)-1H-pyrazolo[3,4-c]pyridin-5-yl)pyridin-3-amine], for which, in assay [1], the IC50 amounted to 2.1 nM. Besides, in assay [2], the EC (100% TGF-beta3 activity) was determined as 259 nM and the Emax was found to be 10%. Also, in assay [3], the EC50 is not above 9 nM.
For the compound `CC(=O)c1ccc(-c2nccc3[nH]c(-c4n[nH]c5cnc(-c6cccnc6)cc45)nc23)s1` [Compound 394, 1-(5-(2-(5-(Pyridin-3-yl)-1H-pyrazolo[3,4-c]pyridin-3-yl)-1H-imidazo[4,5-c]pyridin-4-yl)thiophen-2-yl)ethan-1-one], in assay [1], the IC50 was 5.5 nM. In addition, in assay [2], the EC (100% TGF-beta3 activity) was found to be 142 nM and the Emax amounted to 10%. In assay [3], the concentration giving a half-maximal response (EC50) was found to be 14 nM.
The matching figures for `Cc1ccncc1-c1cc2c(-c3nc4c(-c5cc(F)cc(CNS(C)(=O)=O)c5)nccc4[nH]3)n[nH]c2cn1` [Compound 421, N-(3-Fluoro-5-(2-(5-(4-methylpyridin-3-yl)-1H-pyrazolo[3,4-c]pyridin-3-yl)-1H-imidazo[4,5-c]pyridin-4-yl)benzyl)methanesulfonamide]: 9.9 nM, 122 nM, 10% and more than 10000 nM.
The matching figures for `Cn1cc(-c2cc3c(-c4nc5c(-c6cccc(F)c6)nccc5[nH]4)n[nH]c3cn2)cn1` [Compound 940, 3-(4-(3-Fluorophenyl)-1H-imidazo[4,5-c]pyridin-2-yl)-5-(1-methyl-1H-pyrazol-4-yl)-1H-pyrazolo[3,4-c]pyridine]: 10 nM, 110 nM, 100% and not above 9 nM.
In the same order, the values of `COc1cncc(-c2cc3c(-c4nc5c(-c6cccc(F)c6)nccc5[nH]4)n[nH]c3cn2)c1` [Compound 948, 3-(4-(3-Fluorophenyl)-1H-imidazo[4,5-c]pyridin-2-yl)-5-(5-methoxypyridin-3-yl)-1H-pyrazolo[3,4-c]pyridine] are 10 nM, 174 nM, 900% and not above 9 nM.

Source of the values: US9844536B2, “3-(1H-imidazo[4,5-C]pyridin-2-yl)-1H-pyrazolo[3,4-C]pyridine and therapeutic uses thereof” (Samumed, LLC, priority 2014, dated 2017).
